Source: US20180110747A1, “USE OF THIA OXO COMPOUNDS FOR LOWERING APO C3” (Pronova Biopharma Norge AS, priority 2015, published 2018)

How the values were obtained:
Apo C-III = assay: Example 25C Phase Ib clinical study, hypercholesterolemia, 4 weeks; type: in vivo, human; conditions: 600 mg QD, male hypercholesterolemic subjects withdrawn from statin, statistically significant
Experimental: This study investigated subjects with fasting LDL-C of at least […] (˜97 mg/dl). The objective of the study was to determine the pharmacodynamics and lipid lowering effects of Compound A (Example 2) following 4 weeks of treatment in male, hypercholesterolemic subjects withdrawn from stable statin therapy.
The population for this study consisted of men between 18 and 65 years of any ethnic origin and with a BMI between 18.0 and 35.0 kg/m^2.
This Phase Ib study consisted of a 4-5 week screening period, and a 4 week double-blind, randomized, placebo-controlled treatment period.
All subjects had to be on lipid-lowering statin therapy for at least 3 months prior to the first screening visit, and at stable statin dose for at least 4 weeks prior to the first screening vist.
Statin treatment was withdrawn at the first screening visit, and remained withdrawn for the entire screening period. […]
Blood lipids were measured at the end of the screening period and after 4 weeks of treatment, Exploratory pharmacodynamic measurements included LDL-C, VLDL-C, TC, TO, HDL-C, Non-HDL-C, and Apo B. The impact of Compound A on Apo C-III was also measured.
Summary statistics for baseline is given as mean with coefficient of variance. The mean changes from baseline with 95% confidence intervals were presented by treatment group for efficacy variables analyzed. […]

[1] = test system: plasma apoC-III and other lipid parameters; assay: Example 25A Phase II clinical study, severe hypertriglyceridemia (TG above 500 mg/dL), 12 weeks; type: in vivo, human; conditions: 600 mg QD
Experimental: This study investigated patients with fasting plasma triglyceride levels above 500 mg/dL The primary objective of this study was to evaluate the efficacy of Compound A (Example 2) 600 mg once daily (QD) orally by assessment of the percentage change in triglycerides (TG) from baseline after 12 weeks of treatment. One of the secondary objectives was to evaluate the impact of Compound A on plasma levels of apoC-III.
(§1) This Phase II, multicenter, proof of concept study consisted of a 6- to 8-week screening period (which included a 4- or 6-week diet and lifestyle stabilization/washout period and a 2-week TG qualifying period), and a 12-week, double-blind, randomized, parallel group, placebo-controlled treatment period.
After confirmation of qualifying fasting TG values, eligible subjects entered the 12-week, randomized, double-blind treatment period. At Visit 4 (Week 0), subjects were randomly assigned in a 1:1 ratio to 1 of the following treatment groups: Compound A 600 mg QD or placebo QD.
Approximately 43 subjects per treatment group (approximately 86 subjects total) were to be randomized in this study. Stratification was by baseline TG level (≤700 mg/dL or >700 mg/dL), statin use at randomization, and gender.
(§2) The population for this study was men and women (women of childbearing potential were required to use adequate methods to avoid pregnancy) between the ages of 18 to 79 years of age, inclusive. Subjects on stable lipid-lowering statin therapy and subjects not on non-statin therapy were eligible to enroll in the study. Subjects were required to have an average fasting TG level ≥500 mg/dL, and ≤1500 mg/dL from Visit 2 and Visit 3 values or Visit 3 and Visit 3.1 values prior to randomization.
The ITT Population was the primary analysis population, All efficacy analyses were performed on the ITT Population.
(§3) Summary statistics (n, mean, standard deviation [SD], median, minimum, and maximum) for the baseline and post-baseline measurements, the percent changes, or changes from baseline were presented by treatment group and by visit for all efficacy variables analyzed.
The primary efficacy analysis was performed using an analysis of covariance (ANCOVA) model with treatment, gender, and the use of statin therapy at randomization as factors and baseline TG value as a covariate. The least-squares means, standard errors, and 2-tailed 95% confidence intervals (CIs) for each treatment group and for the comparison between Compound A and placebo were provided.
An ANCOVA model was used for the analysis of secondary efficacy variables with treatment, gender, and the use of statin therapy at randomization as factors and the baseline value of the respective efficacy variable as a covariate.
The population recruited for the current study included men (69.0%) and women (31.0%) with a mean age of 52.5 years. approximately 21% of subjects in both treatment groups received statin therapy through the study. All other non-statin lipid-altering medications were discontinued at screening. Mean compliance to study medication during the study was 96.5% for the placebo group and 99.9% for the Compound A 600 mg group.

apoC-III = assay: Hepatic apoC-III gene expression in APOE*3Leiden transgenic mice on Western-type diet; type: in vivo, mouse; conditions: 0.3 mmol/kg bw/day orally as admix to WTD, 4 weeks
Description: The APOE*3Leiden transgenic mouse is expressing a variant of the human apolipoprotein E3 (APOE3), the APOE*3Leiden, in addition to the human apolipoprotein C1 (APOC1). […] In contrast to normal wild-type mice, the APOE*3Leiden transgenic mice are highly responsive to diet and hypolipidemic drugs affecting plasma VLDL and chylomicron levels (Van Vlijmen B et al, Diet-induced hyperlipoproteinemia and atherosclerosis in apolipoprotein E3-Leiden transgenic mice, J Clin Invest 1994; 93: 1403-1410; Groot PHE, et al. Quantitative assessment of aortic atherosclerosis in apoE3Leiden transgenic mice and its relationship to serum cholesterol exposure, Arterioscler Thromb Vase Biol 1996; 16: 926-933). Consequently, this model is appropriate to evaluate effects of lipid lowering drugs.
In this study, female APOE*3Leiden transgenic mice were put on a semi-synthetic Western-type diet (WTD; 15% cocoa butter, 40% sucrose and 0.25% cholesterol; all w/w). […]
Liver tissues were stored in RNA later (Qiagen) at −80° C. […] Each sample was measured in 3 parallels, and the results are presented as the mean value relative to control (WTD without addition), The fold change in gene expression was calculated by the ΔΔCt method, using Rplp0 as housekeeping gene and the mean of the control samples as calibrator.

[2] = test system: plasma apoC-III and other lipid parameters; assay: Example 25B Phase II clinical study, mixed dyslipidemia (TG 200-499 mg/dL) on statins, 12 weeks; type: in vivo, human; conditions: 600 mg QD
Experimental: This study investigated patients with fasting plasma TG levels between 200 and 499 mg/dL and non-high density lipoprotein cholesterol (non-HDL-C) above 130 mg/dL already receiving treatment with statins. The primary objective of this study was to evaluate the efficacy of Compound A (Example 2) 600 mg QD orally by assessment of the percentage change in triglycerides non-HDL-C from baseline after 12. weeks of treatment. One of the secondary objectives was to evaluate the impact of Compound A on plasma levels of apoC-III.
as §1, with “TG and non-HDL-C” for “TG”
After confirmation of qualifying fasting TG and non-HDL-C values, eligible subjects entered the 12-week, randomized, double-blind treatment period. At Visit 4 (Week 0), subjects were randomly assigned in a 1:1 ratio to 1 of the following treatment groups: Compound A 600 mg QD or placebo QD.
as §2, with “non-statin lipid-lowering” for “non-statin”, “between […]” for “≥500 mg/dL,”, “[…] and non-HDL-C values above 130” for “≤1500”
The ITT Population was the primary analysis population. All efficacy analyses were performed on the ITT Population.
as §3
The primary efficacy analysis was performed using an ANCOVA model with randomization as factor and baseline non-HDL-C value as a covariate. The least-squares means, standard errors, and 2-tailed 95% CIs for each treatment group and for the comparison between Compound A and placebo were provided.
The primary efficacy analysis was based on the […].
The population recruited for the current study included men (58.4%) and women ([…]) with a mean age of 58.3 years. All subjects were required to be on statin therapy (with or without ezetimibe) during the study. All other non-statin lipid-altering medications were discontinued at screening. Mean compliance to study medication during the study was 97.2% for the placebo group and 95.3% for the Compound A group.
The baseline mean non-HDL-C level for the study population was 165.9 mg/dL; the baseline median TG level was 262.0 mg/dL.

[3] = In-vitro digestion studies in a bio relevant media; type: in vitro ADME
Description: Examples 1-23 are exemplary and one skilled in the art would understand how to apply these general methods to arrive at other compounds within the scope of Formula (I). Compounds of the present disclosure may be in the form of a pharmaceutically acceptable salt or ester. For example, the compounds of Formula (I) may be in the form of esters, such as a phospholipid, a glyceride or a C1-C6-alkyl ester. In at least one embodiment, the ester is chosen from a glyceride or a C1-C6-alkyl ester. In at least one embodiment, the ester is chosen from a triglyceride, a 1,2 diglyceride, a 1,3-diglyceride, a 1-monoglyceride, a 2-monoglyceride, a methyl ester, an ethyl ester, a propyl ester, a isopropyl ester, a n-butyl ester and a tert-butyl ester. In at least one embodiment, the compound of Formula (I) is present as a methyl ester, an ethyl ester, an isopropyl ester, a n-butyl ester or a tert-butyl ester, for example as a methyl ester or an ethyl ester.

[4] = subjects with TG >500 mg/dl, 12 weeks
[5] = mixed dyslipidemia, TG = 200-499 mg/dl, on statin, 12 weeks

CC/C=C\C/C=C\C/C=C\C/C=C\C/C=C\CCCCOC(CC)C(=O)O (centres unmarked) [Compound A, 2-((5Z,8Z,11Z,14Z,17Z)-icosa-5,8,11,14,17-pentaen-1-yloxy)butanoic acid]
mean percent change in Apo C-III vs baseline (Apo C-III): −42% | LS mean percent change in apoC-III versus placebo ([1]; 12 weeks, ITT Population, 95% CI (−46.5, −22.8)): −34.7% | LS mean percent change in apoC-III vs baseline ([1]; 12 weeks, ITT Population, 95% CI (−47.5, −28.5)): −38.0% | median reduction in apoC-III ([1]; severe HTG patient population): 41% | ApoC-III, median % change from baseline [1, 4]: −41% | HDL-C, median % change from baseline [1, 4]: 24% | LDL-C, median % change from baseline [1, 4]: 43% | Non-HDL-C, median % change from baseline [1, 4]: −8% | TG, median % change from baseline [1, 4]: −51% | VLDL-C, median % change from baseline [1, 4]: −51% | effect on hepatic apoC-III expression compared with reference Compound 12 (apoC-III): more potent | hepatic apoC-III expression versus mice fed a standard WTD (FIG. 1) (apoC-III; P<0.05, Student T-test): significantly lower | LS mean percent change in ApoC-III vs placebo ([2]; 12-week completer population, 95% CI (−28.8, −12.7)): −20.8% | LS mean percent change in apoC-III vs baseline ([2]; 12-week completer population, 95% CI (−38.4, −26.6)): −32.5% | Apo B, median % change from baseline [2, 5]: −6% | ApoC-III, median % change from baseline [2, 5]: −35% | LDL-C, median % change from baseline [2, 5]: 0% | Non-HDL-C, median % change from baseline [2, 5]: −10% | TG, median % change from baseline [2, 5]: −43% | VLDL-C, median % change from baseline [2, 5]: −39% | median reduction in apoC-III ([2]; mixed dyslipidemic patient population): 35%

CC/C=C\C/C=C\C/C=C\C/C=C\C/C=C\CCCCOC(CC)C(=O)OCC (centres unmarked) [Example 12, ethyl 2-((5Z,8Z,11Z,14Z,17Z)-icosa-5,8,11,14,17-pentaen-1-yloxy)butanoate]
hydrolysis in the gastrointestinal tract, from in-vitro digestion [3]: rapidly hydrolyzed

CC/C=C\C/C=C\C/C=C\C/C=C\C/C=C\CCCCOC(CC)C(=O)OCCCC (centres unmarked) [Example 15, butyl 2-(((5Z,8Z,11Z,14Z,17Z)-icosa-5,8,11,14,17-pentaen-1-yl)oxy)butanoate]
hydrolysis in the gastrointestinal tract, from in-vitro digestion [3]: rapidly hydrolyzed
